Results from patent US12098139B2, “Chemokine receptor modulators and uses thereof” (RAPT Therapeutics, Inc., priority 2018, dated 2024).

Tested on: ovalbumin-induced pulmonary inflammation
Assay: Murine model of ovalbumin-induced pulmonary inflammation (BALF cell counts and mediators)
Assay type: in vivo, mouse (female Balb/c)
Conditions: for IL-5 levels in BALF: vs OVA group (FIG. 3)
Method: A study was performed to investigate the effects of daily oral administration of the compound 2-((R)-3-(1-(1-((R)-1-(2,4-Dichlorophenyl)ethyl)-3-(cyano)-1H-pyrazolo[3,4-b]pyrazin-6-yl)azetidin-3-yl)piperidin-1-yl)ethan-1-ol (FLX-A-12) (disclosed in US Patent Publication 2018-0072740 published Mar. 15, 2018) and the compound (1R,3r)-3-((R)-3-(1-(5-chloro-4-(((R)-1-(2,4-dichlorophenyl)ethyl)amino)-6-methylpyrimidin-2-yl)azetidin-3-yl)piperidin-1-yl)-1-methylcyclobutane-1-carboxylic acid (FLX-B-10) (disclosed in Example 38 herein) on the level of lung eosinophilia in a murine model of ovalbumin-induced pulmonary inflammation. An automated system of haematological cellular analysis (DASIT Sysmex XT-2000iV) was used to perform total and differential cell counts and assess the degree of ovalbumin challenge-induced pulmonary eosinophilia. FLX-A-12 and FLX-B-10 were administered daily for five days at the doses of 50 and 30-100 mg/kg respectively, and eosinophilic inflammation was measured 24 hours after the last ovalbumin challenge. Dexamethasone was included as a positive reference substance (3 mg/kg p.o. daily). On days 20-23 inclusive, mice received vehicle (30% PG in water), reference compound (Dexamethasone, 3 mg/kg) and test compounds (FLX-A-12 at 50 mg/kg and FLX-B-10 at 30 and 100 mg/kg), 1 hr prior ovalbumin challenge via the p.o. route. In addition, the test compounds (FLX-A-12 and FLX-B-10) were dosed on day 19 24 hr prior to the dosing on day 20.
FLX-A-12 was formulated at the concentration of 5 mg/mL (corresponding to the dose of 50 mg/kg in a dose volume of 10 mL/kg) in 30% PG in water. The doses of FLX-B-10 (30 and 100 mg/kg) were prepared by dissolving 3 and 10 mg/ml of the compound respectively in 30% PG in water at a dose volume of 10 ml/kg. The dose of Dexamethasone (3 mg/kg) was prepared by dissolving 0.3 mg/mL of the compound in 30% PG in water at a dose volume of 10 ml/kg.
The effects of FLX-A-12 and FLX-B-10 were assessed in the ovalbumin mouse model of pulmonary inflammation. The study was performed in female Balb/c mice, and included the following 6 treatment groups (n=10/group): (i) Vehicle group: challenged with saline and dosed with compound Vehicle, 1 hr before challenge; (ii) OVA/Vehicle group (control): challenged with ovalbumin and dosed with compound Vehicle, 1 hr before challenge; (iii) OVA/FLX-A-12 50 mg/kg (p.o.): challenged with ovalbumin and dosed with FLX-A-12, 1 hr before challenge; (iv) OVA/FLX-B-10 30 mg/kg (p.o.): challenged with ovalbumin and dosed with FLX-B-10, 1 hr before challenge; (v) OVA/FLX-B-10 100 mg/kg (p.o.): challenged with ovalbumin and dosed with FLX-B-10, 1 hr before challenge; and (vi) Dexamethasone 3 mg/kg (p.o.) group: challenged with ovalbumin and dosed with Dexamethasone, 1 hr before challenge.
The eosinophilic inflammation induced by ovalbumin-challenge (i.n.) was measured as cell count increase in bronchoalveolar lavage fluid (BALF) using an automated system of haematological cellular analysis (DASIT Sysmex XT-2000iV) at 24 hours after the last OVA-challenge. The effects of the test compounds were evaluated as ability to decrease the eosinophilic inflammation with respect to the OVA group.
For antigen sensitization, on day 1, animals received 10 μg of OVA in 2 mg of Aluminium hydroxide hydrate (AlOH3) at a dose volume of 200 μl per mouse subcutaneously (s.c.). On day 14, all animals got a second (boost) s.c. injection with the same dose of Alum/OVA as above.
On days 20-23 inclusive, mice received vehicle, 30% PG in water, reference compound (Dexamethasone 3 mg/kg) and test compounds (FLX-A-12 at 50 mg/kg and FLX-B-10 at 30 and 100 mg/kg), 1 hr prior OVA challenge via the p.o. route. In addition, test compounds (FLX-A-12 and FLX-B-10) were dosed on day 19, 24 hr prior to the dosing on day 20. All compounds were administered at a dose volume of 10 ml/kg. Dose volumes were calculated based on individual animal weight. […]

## Cc1nc(N2CC([C@H]3CCCN([C@H]4C[C@](C)(C(=O)O)C4)C3)C2)nc(N[C@H](C)c2ccc(Cl)cc2Cl)c1Cl [FLX-B-10, (1R,3r)-3-((R)-3-(1-(5-chloro-4-(((R)-1-(2,4-dichlorophenyl)ethyl)amino)-6-methylpyrimidin-2-yl)azetidin-3-yl)piperidin-1-yl)-1-methylcyclobutane-1-carboxylic acid]
30 mg/kg p.o. (FIG. 6)
  CCL-22 in BALF: significantly reduced in all conditions, except for FLX-B-10 at 30 mg/kg
100 mg/kg p.o.
  IL-5 levels in BALF: significantly reduced
30 and 100 mg/kg p.o. (FIG. 4)
  IL-13 in BALF, dose dependence: dose-dependent decrease
30 and 100 mg/kg p.o. (FIG. 6)
  CCL-22 in BALF, dose dependence: dose-dependent decrease
30 and 100 mg/kg p.o., 24 hours after last ovalbumin challenge
  reduction of eosinophilic inflammation (BALF) with respect to the OVA group: statistically significant reduction of eosinophilic inflammation only at 100 mg/kg

## C[C@@H]1C[C@H]2[C@@H]3CCC4=CC(=O)C=C[C@]4(C)[C@@]3(F)[C@@H](O)C[C@]2(C)[C@@]1(O)C(=O)CO [Dexamethasone, dexamethasone, reference compound]
3 mg/kg p.o. daily, 24 hours after last ovalbumin challenge, vs OVA group
  percentage of reduction in the eosinophilic cell count in BALF: 92%

## C[C@H](c1ccc(Cl)cc1Cl)n1nc(C#N)c2ncc(N3CC([C@H]4CCCN(CCO)C4)C3)nc21 [FLX-A-12, 2-((R)-3-(1-(1-((R)-1-(2,4-Dichlorophenyl)ethyl)-3-(cyano)-1H-pyrazolo[3,4-b]pyrazin-6-yl)azetidin-3-yl)piperidin-1-yl)ethan-1-ol, reference compound]
50 mg/kg p.o.
  IL-5 levels in BALF: significantly reduced
